From a melting point compilation (Tetko et al.; mined from patent text by program, amines drawn as free bases though some values may be those of a salt)

melting point [°C] | SMILES
89 to 92 | CCOC(=O)c1cccc(NC(=O)C(CSC(C)=O)Cc2ccccc2)c1 (stereo not given)
257 | Cc1nnc(N2C(=O)C(O)=C(C(=O)c3ccc(C(C)C)cc3)C2c2ccc(C(F)(F)F)cc2)s1 (stereo not given)
90 to 92 | CCCCOC1OC(CO)C(O)C(O)C1(O)N(Cc1cccc(C)c1C)C(=O)N(CCCl)N=O (stereo not given)
174 to 175 | O=C(c1ccccc1)c1cnn2cccnc12
110 to 112 | CC(C)N(C(=O)CNc1ccccc1N)c1ccccc1
41 to 42 | CCOc1cc(C=C(Br)Br)ccc1OC
79 to 82 | CCCCOC(C(=O)O)c1ccc2c(c1)C(C)(C)CCC2(C)C (racemic)
165 to 166 | CCN1C(=O)C(=C2Oc3ccccc3N2CC)SC1=S
143 to 146 | COc1ccc2c(c1)C(Cc1ccnc(F)c1)(Cc1ccnc(F)c1)c1ccccc1-2
239 to 241 | Cc1cc(SCc2ccnc3[nH]c(-c4ccc(C(F)(F)F)cc4)nc23)ccc1OCC(=O)O
97 to 98 | Cn1c(=O)oc2cc(NCCCc3ccccc3)ccc21
145 to 147 | CC(=O)N1CCc2cc(C(=O)CCCN3CCC(c4noc5cc(F)ccc45)CC3)sc2C1
43 to 44 | O=c1ccoc2cc(OS(=O)(=O)C(F)(F)F)ccc12
162 | COc1ccc(-c2nnc(C(C)C)n2-c2ccc(OC)cc2)cc1
64 to 67 | COc1ccc2c(C(C)=O)noc2c1
117 to 119 | [O-][N+](=Cc1ccccn1)c1cccc(CO)c1

melting point [°C] | SMILES
93 to 95 | CC(C)(C)OC(=O)N[C@@H](CO)C(=O)N[C@@H](CCC(=O)OCc1ccccc1)C(=O)OCc1ccccc1
62 to 64 | O=C(CCCCNC(=O)C(=O)c1cn2c3c(cccc13)CCC2)NOCc1ccccc1
146 to 149 | CC(=O)Nc1cc(Cl)ccc1OCC#N
123 to 125 | Cc1ccc(-c2c(C(=O)NCc3cc(C(F)(F)F)cc(C(F)(F)F)c3)n(C[C@H](C)CO)c(=O)c3ncccc23)cc1
45 | OCc1ccc(-c2cccc(C(F)(F)F)c2)o1
137 to 140 | C[C@]1(COC(=O)N2CCC(Nc3ccc(C(F)(F)F)cc3)CC2)Cn2cc([N+](=O)[O-])nc2O1
97 | CC(C)[C@H](O)[C@@H](CCCCOc1cc(F)ccc1F)n1nc[nH]c1=S (racemic)
> 280 | CSc1nn2c(N)ncnc2c1S(=O)(=O)c1ccccc1
120 to 121 | COC(CCc1cc(C(F)(F)F)cc(C(F)(F)F)c1)C(Cc1csc2ccccc12)NC(C)=O (stereo not given)
69 to 72 | O=C1CCCCC1(CCCCCOc1ccccc1)c1ccccc1 (stereo not given)
91 to 92.5 | COc1ccc2c(c1)C(=O)C(Cc1ccncc1)CO2 (stereo not given)
119 to 121 | NCCCCc1csc(-c2ccccn2)n1
173 to 175 | NC(=O)c1ccnc(-c2cccc3cc(Cc4cc(F)cc(Cl)c4)sc23)c1
113 to 115 | CCOC(=O)c1sc2cc(COc3cccnc3)ccc2c1S(=O)c1cccc(OC)c1 (stereo not given)
118 to 120 | CC1CC2(CN(O)C2=O)c2cc(F)ccc2O1 (stereo not given)

The remaining lines, values behind:

SMILES | melting point [°C]
O=S(c1ccccc1)C1O[C@H](COCc2ccccc2)[C@@H](OCc2ccccc2)[C@H](OCc2ccccc2)[C@H]1OCc1ccccc1 (stereo not given in full) | 120 to 122
CCN(C)N1CSC(=Cc2cc(C(C)(C)C)c(O)c(C(C)(C)C)c2)C1=O | 134 to 135
O=S(=O)(c1ccc(O)c(-c2ccccc2)c1)c1ccc(O)c(-c2ccccc2)c1 | 243 to 245
CN1CCC(=C2c3sccc3C=Cn3ccnc32)CC1 | 152
CN1C(=O)[C@H](NC(=O)CCC2CCCCC2)N=C(c2ccccc2)c2ccccc21 | 144 to 146
CSC(Nc1cc(C(F)(F)F)cc(C(F)(F)F)c1)=C(C#N)S(C)(=O)=O | 129 to 131
CC1CC2C3CCC4=CC(=O)C=CC4(C)C3=CCC2(C)C1C(=O)COS(=O)(=O)c1ccc([N+](=O)[O-])cc1 (stereo not given) | 151 to 160
CC(C)CNC(=O)NS(=O)(=O)c1ccc(CCNC(=O)N2CCCCC2=O)cc1 | 179 to 181
Cc1cc(O)c(Oc2ccccc2C#N)cc1-c1ccsc1 | 155 to 159
O=C(NCc1ccccc1)N1C(=O)[C@H](O)[C@@H]1c1ccccc1 | 165 to 168
CC(=O)c1ccc(-c2ccc3c(ccn3Cc3ccccc3)c2)cc1 | 134 to 135
COc1cc2c(c3c1OC(C)(C)C3)C(c1ccc(=O)n(-c3cccc(-c4ccccn4)n3)c1)=NC(C)(C)C2 | 231 to 234
N#CCc1ccc(-c2onc3ccccc23)cc1 | 118 to 121
Cc1cccc(C)c1C(N)=NO | 77 to 79
NC(=O)Cc1ccc2c(c1)CCc1cccnc1O2 | 164 to 165
Cc1ccc(N=C(N(Cc2ccccc2)C2CCCCC2)N(Cc2ccccc2)C2CCCCC2)cc1 | 128 to 130
Cc1ccccc1-n1c(CC(O)c2ccccc2)nc2ccccc2c1=O (stereo not given) | 119
Cc1[nH]c(=O)c(C#N)cc1C(=O)CBr | 212 to 214
CC(=O)OC1COC(n2c(Br)nc3cc(Cl)c(Cl)cc32)C(OC(C)=O)C1OC(C)=O (stereo not given) | 100 to 110
CCN1C(Cl)=NC(C)=NS1(=O)=O | 57 to 59

SMILES | melting point [°C]
CN1Cc2c(C#CC3(O)CCCC3)ncn2-c2cccc(Cl)c2C1=O | 207 to 208
Cc1ccc(-c2ccc3c(c2)C=C(C(=O)Nc2ccc(CN4CCSCC4)cc2)CC3)cc1 | 178 to 180
COc1cc(OC)c(C2CCN(C)CC2=O)c(OC)c1 (single isomer, unassigned; (+)) | 110 to 112
S=C(NN=C(CCCCl)c1ccccc1)Nc1ccccc1 | 107 to 109
COc1cc(OC)nc(Sc2cccc(Cl)c2C(=O)O)n1 | 148 to 151
COc1ccc(C=Cc2nnc(C(Cl)(Cl)Cl)o2)cc1 | 140 to 142
CC1(C)CCC(C)(C)c2cc(S(=O)c3ccc(C(=O)O)cc3)ccc21 (stereo not given) | 214 to 216
CS(=O)(=O)NCCS(=O)(=O)N1CCN(S(=O)(=O)c2ccc(-c3ccc(Cl)cc3)s2)[C@@H](C(=O)NO)C1 | 118 to 122
O=C1Cc2cccc(Oc3ccc4ccccc4c3)c2N1 | 195 to 197
Nc1nc(N2CCOCC2)c2ncn(C3C=CC(CO)C3)c2n1 (stereo not given) | 165 to 167
CN1CCC(O)(c2cc3ccccc3s2)CC1 | 161 to 163
CCOC(=O)c1ccc(C=CCN2CCc3nc(N)sc3CC2)cc1 | 111 to 115
Cc1c(C#N)oc2c(-c3ccc(F)cc3)c(-c3ccc(S(N)(=O)=O)cc3)nn12 | 231 to 232
CC(C)(C)C(NC(=O)c1cc(Cl)cc(Cl)c1)Nc1c(Nc2cccnc2Cl)c(=O)c1=O (stereo not given) | 233 to 234
CON=C(c1cc(C)no1)c1ccccc1CON=C(C)c1ccc(Cl)c(Cl)c1 | 84 to 85
CCOC1CC(c2ccccc2)Oc2c1ccc1c2nc(C)n1C (stereo not given) | 177 to 178
CC(C)n1c(=O)nc(-c2cc3c(cc2Cl)OCO3)c2cc3c(cc21)OCO3 | 147 to 150
CCOC(=O)C(Cc1ccccc1)C(=O)Nc1ccc(CP(=O)(OCC)OCC)cc1 (stereo not given) | 115 to 116
O=[N+]([O-])c1ccc(-n2nc3c(c2O)-c2ccccc2CC3)nc1 | 226 to 227
